One experiment has as its system HT29 tumors. Briefly: Subcutaneous HT29 tumors in SCID mice. The experiment is classed as in vivo, mouse. Conditions: sc HT29 tumors. As to the method: SCID mice (C.B.17 SCID) were bred by the Laboratory Animal Shared Resource at Roswell Park Comprehensive Cancer Center. Male mice at 7-8 weeks of age were used. All mouse experiments were approved by the Institutional Animal Care and Use Committee at Roswell Park Comprehensive Cancer Center under protocol 1022M. We established subcutaneous tumors by inoculating 1×10^6 HCT116 cells, 4×10^6 HT29 cells, or 2×10^6 SW48 cells to the flank of each mouse in 100 μl of serum free medium. Colon patient-derived xenograft (PDX) 14650 was established from a liver metastatic lesion in a patient treated at Roswell Park Comprehensive Cancer Center. Tumor fragments (˜20 mm^3) from donor mice were implanted into the flank of each mouse subcutaneously using a trocar. Orthotopic colon tumors in mice were established by inoculating HCT116 cells stably transfected with firefly luciferase (2×10^6 cells in 50 μl of 50% serum-free medium and 50% Matrigel) to the caecum wall of each mouse. Mice in each tumor model were randomized cage-wise into treatment groups using Research Randomizer (www.randomizer.org). Subcutaneous tumor volume was measured using length ×width^2÷2. Tumor volume was measured three times each week. Orthotopic tumor growth was monitored by bioluminescence weekly. Mice were given D-luciferin (150 mg/kg) by ip and anesthetized with isoflurane, and tumor burden was measured by bioluminescence using the IVIS Spectrum In Vivo Imaging System (PerkinElmer). Drug treatment was started when significant tumor growth was detected. EP (0.5 mg/kg) was administered to mice ip once daily. PEPD^G278D (4 mg/kg) was administered to mice ip thrice weekly (Monday, Wednesday, Friday). Aderbasib (60 mg/kg) was administered to mice by gavage once daily. 5-FU (35 mg/kg) was administered to mice ip twice weekly (Monday and Thursday). EP, PEPD^G278D and 5-FU were administered to mice in PBS. Aderbasib was first dissolved in DMSO and then diluted by PBS (final 5% DMSO by volume). […] The mice were closely monitored for sign of adverse effects and weighed three times each week. […]

In experiment [1] the test system is HER3, IGF1R, MET, SRC, AKT, ERK, MEK, NRAS, HRAS, caspase 3. Nature of the experiment: Western blotting of tumor homogenates: other signaling proteins. Type of experiment: in vivo, mouse. On the procedure: To prepare whole cell lysates, cells were washed with PBS twice, mixed with 1× cell lysis buffer from Cell Signaling Technology supplemented with 2 mM PMSF and a protease inhibitor cocktail from Roche Applied Science, placed on ice for 10 min, sonicated at 0-4° C. to enhance cell lysis using a Branson Model 450 sonifier, and finally centrifuged at 13,000 g for 10 min at 4° C., and the supernatant fraction is collected as whole cell lysate. Tumor and samples were mixed with RIPA buffer (25 mM Tris-HCl, PH7.6, 150 mM NaCl, 1% Nonidet P-40, 1% sodium deoxycholate, and 0.1% SDS), which was supplemented with 2 mM PMSF, the protease inhibitor cocktail mentioned above, phosphatase inhibitor cocktail 2 and phosphatase inhibitor cocktail 3 from Sigma-Aldrich at 14.3 μl buffer per mg tissue, and homogenized in a Dounce homogenizer. The homogenates were cleared by centrifugation at 13,000 g for 15 min at 4° C.
Protein concentrations in all samples were measured using the BCA Assay Kit. For Western blotting, each sample was mixed with 4× loading dye, heated for 5 min at 95° C., and resolved by SDS-PAGE (8-12.5%). Proteins were transferred to polyvinylidene fluoride membrane, probed with specific antibodies, and detected using either Luminata Classico (Millipore) or Luminata Cresendo (Millipore). […] The beads were washed three times with IP buffer, suspended in 2× SDS loading buffer, boiled for 5 min, and analyzed by Western blotting.
SCID mice (C.B.17 SCID) were bred by the Laboratory Animal Shared Resource at Roswell Park Comprehensive Cancer Center. […] Subcutaneous tumor volume was measured using length ×width^2÷2. Tumor volume was measured three times each week. Orthotopic tumor growth was monitored by bioluminescence weekly. Mice were given D-luciferin (150 mg/kg) by ip and anesthetized with isoflurane, and tumor burden was measured by bioluminescence using the IVIS Spectrum In Vivo Imaging System (PerkinElmer). Drug treatment was started when significant tumor growth was detected. […] The mice were closely monitored for sign of adverse effects and weighed three times each week.
A general note: A western blot detects proteins with antibodies after separation by electrophoresis.

As to `COC(=O)N1CC2(CC2)C[C@H](C(=O)NO)[C@H]1C(=O)N1CC=C(c2ccccc2)CC1` [aderbasib], in the experiment on HT29 tumors (aderbasib alone 60 mg/kg by gavage daily), the tumor growth result is listed as “ineffective”. Also, the “expression or phosphorylation of the proteins analyzed in tumors” value in experiment [1] (HCT116 and HT29 tumors, single agent) was “neither EP nor aderbasib had any effect”.

B1: PEPD^G278D: recombinant and enzymatically inactive mutant of human peptidase D (PEPD), with replacement of glycine 278 by aspartic acid (protein)
chain: AAATGPSFWLGNETLKVPLALFALNRQRLCERLRKNPAVQAGSIVVLQGGEETQRYCTDTGVLFLQESFFHWAFGVTEPGCYGVIDVDTGKSTLFVPRLPASHATWMGKIHSKEHFKEKYAVDDVQYVDEIASVLTSQKPSVLLTLRGVNTDSGSVCREASFDGISKFEVNNTILHPEIVESRVFKTDMELEVLRYTNKISSEAHREVMKAVKVGMKEYGLESLFEHYCYSRGGMRHSSYTCICGSGENSAVLHYGHAGAPNDRTIQNGDMCLFDMDGEYYSVASDITCSFPRNGKFTADQKAVYEAVLLSSRAVMGAMKPGDWWPDIDRLADRIHLEELAHMGILSGSVDAMVQAHLGAVFMPHGLGHFLGIDVHDVGGYPEGVERIDEPGLRSLRTARHLQPGMVLTVEPGIYFIDHLLDEALADPARASFLNREVLQRFRGFGGVRIEEDVVVIDSGIELLTCVPRTVEEIEACMAGCDKAFTPFSGPK
modifications: left off: small tags and cut ends
B1: the tumor growth result with HT29 tumors (EP plus PEPD^G278D 4 mg/kg ip three times weekly, or cetuximab 15 mg/kg ip twice weekly) was “neither agent inhibited the growth”. Further, the “ERK phosphorylation in tumors” value in experiment [1] (SW48 tumors, 24 h after the final dose) is on record as “decreased ERK phosphorylation”.

Values taken from patent US20250009852A1, “DEPLETING EGFR AND HER2 OVERCOMES RESISTANCE TO EGFR INHIBITORS IN COLORECTAL CANCER” (Health Research, Inc., priority 2021, published 2025).
